Measured values from paper PMC8156508, “Ileo-Colon Targeting of the Poorly Water-Soluble Drug Celecoxib Using a pH-Dependent Coating in Combination with Self-Emulsifying Drug Delivery or Solid Dispersion Systems” (Pharmaceutics, 2021).

Key:
[1] = set-up: method as in PMID 26146768; details: cited from earlier work
[2] = set-up: method as in PMID 26401428; details: cited from earlier work
[3] = Saturation concentration of CXB in oily phases, surfactants and co-surfactants/co-solvents; type: physicochemical; details: 30 °C
Experimental: To assess the saturation concentration of CXB in different oily phases (Capryol 90, Captex 200 P, Captex 355 EP/NF, isopropyl myristate, Maisine CC, and Peceol), surfactants (Cremophor RH40, Labrasol, Tween 20, and Tween 80), and co-surfactants/co-solvents (Capmul PG-8 NF, PEG 400, Plurol oleique CC 497, and tetraglycol), an excess amount of CXB was added to the liquid excipients and placed in a tube rotator at 20 rpm and 30 °C for a day. After that, samples were centrifuged at 14,000 rpm for 20 min and the supernatant was appropriately diluted in methanol. The drug concentration was determined at 252 nm with a UV-VIS spectrophotometer Unicam UV 500A (Gemini, Apeldoorn, The Netherlands).

[4] = pH 7; cited from earlier work
[5] = set-up: method as in PMID 14603484; details: rats; cited from earlier work

In the case of `C[C@]12C=CC(=O)C=C1CC[C@@H]1[C@@H]2[C@@H](O)C[C@@]2(C)[C@H]1CC[C@]2(O)C(=O)CO` [prednisolone], the “effect of pH-dependent colon targeted film coating on in vitro release profile of solid SMEDDS” value [1] is listed as “not impacted”.

In the case of `CCCCCCCCCCCCOS(=O)(=O)[O-].[Na+]` [SDS, sodium dodecyl sulfate], the critical micelle concentration [2] is listed as 8 mM.

In the case of `Cc1ccc(-c2cc(C(F)(F)F)nn2-c2ccc(S(N)(=O)=O)cc2)cc1` [CXB, Celecoxib], the “solubility of CXB in surfactants” value ([3]; Tween 20, Tween 80, cremophor RH40, Labrasol ALF) is reported as “comparable CXB solubilities”, the “solubility of CXB in co-surfactants/co-solvents” value ([3]; in PEG 400 and tetraglycol) is reported as “highest solubility” and the “solubility of CXB in oily phases” value ([3]; in capryol 90, among six oily phases) is reported as “highest amount”. For the same compound, the solubility [4] was 3 to 7 µg/mL.

In the case of `CC(=O)O[C@H]1C(=O)[C@@]2(C)[C@H]([C@H](OC(=O)c3ccccc3)[C@]3(O)C[C@H](OC(=O)[C@H](O)[C@@H](NC(=O)c4ccccc4)c4ccccc4)C(C)=C1C3(C)C)[C@]1(OC(C)=O)CO[C@@H]1C[C@@H]2O` [paclitaxel], the “higher bioavailability by HPMC precipitation inhibition in SEDDS” value [5] is given as 5 fold.
